# According to the SangsterLogP compilation:
# Assay: not given
# Settings: not given
row,logP,Compound
1,0.54,CNC(=O)NS(=O)(=O)Cc1ccccc1
2,0.42,CNC(=O)N(C)S(=O)(=O)c1cccnc1
3,0.28,NC(=O)NS(=O)(=O)Cc1ccccc1

# More lines, now with the values behind:
row,Compound,logP
1,CN(C)C(=O)NS(=O)(=O)Cc1ccccc1,0.54
2,CNC(=O)N(C)S(=O)(=O)Cc1ccccc1,1.18

# Assay: method code SF-AS, from Cloux, J.; Crommen, J.; Delarge, J.; Pirard, M.; Thunus, L. (1988). Attempts at calculating hydrophobic constant of the sulfonylurea group. J Pharm Belg, 43(3)141-151.
# Settings: not given
row,logP,Compound
1,0.28,CN(C)C(=O)NS(=O)(=O)c1ccccc1
2,0.28,NC(=O)NS(=O)(=O)c1ccccc1

# Continued, compound first:
row,Compound,logP
1,CC(C)(C)NC(=O)NS(=O)(=O)c1ccccc1,1.95
2,CC(C)NC(=O)NS(=O)(=O)c1ccccc1,1.34
3,CCCNC(=O)NS(=O)(=O)c1ccccc1,1.44
4,CCN(CC)C(=O)NS(=O)(=O)c1ccccc1,0.99
5,CCNC(=O)NS(=O)(=O)c1ccccc1,0.9

# Same assay, conditions: pH 3.5
row,logD,Compound
1,-0.65,NC(=O)NS(=O)(=O)c1cccnc1
2,-0.45,CNC(=O)NS(=O)(=O)c1cccnc1
